Data taken from patent publication US20060051295A1, “Estrogen receptor interaction with a transcription factor” (priority 2002, published 2006).

Assays:
Assay type in all cases: cell-based, human
cRel + ER alpha = assay: Transrepression of c-Rel induced reporters, U-2 OS co-transfected with ERα
Method: (§1) Next was determined whether transrepression by ER is limited to particular NF-κB types, such as c-Rel or RelA, by overexpression of these NF-κB proteins in U-2 OS cells (Table 2). Again, the promoter-reporter constructs for the E-selectin, ICAM and VCAM genes were used in these experiments. Significant activation of these reporters by overexpression of c-Rel was observed. This activation was strongly and reproducibly transrepressed by both ERα and ERβ (Table 2).
(§2) Table 2. Estrogen-dependent transrepression of the promoters from E-selectin, VCAM and ICAM and a synthetic NF-κB responsive reporter, measured as the amount of luciferase activity. Transient (co-)transfections of ERα (or ERβ) and reporter were performed in U-2 OS cells. Reporter activity was induced by cellular exposure to Il-1β or by co-transfection of the NF-κB genes c-Rel or RelA. […] For detailed information on the composition of the reporters used, see appendix 1. The hyphen (-) in the table indicates the test with cells without transfected cDNA and no additives in medium; n.d. means: not determined.
(§3) For transient transfections, cells were seeded in 6-well plates (2.10^5 cells/well). After two or three days the cells were transfected with reporter, expression vectors and β-galactosidase control vector. Two different experimental settings were used. For testing transrepression of IL-1β induced promoter activity, cells were transfected with 1 μg reporter construct, 1 μg expression vector (containing either ERα, ERβ or GR), and 0.25 μg of β-galactosidase control plasmid. For testing transrepression in combination with c-Rel or ReLA overexpression, cells were transfected with 1 μg reporter construct, 1 μg expression vector (containing either ERα, ERβ or GR) and 0.1 or 1.0 μg expression vector containing c-Rel or RelA and 0.25 μg of β-galactosidase control vector. Equivalent amounts of DNA were obtained by adding the appropriate expression vector that lacks an insert. Transient transfection was performed using lipofectin reagent (Life Technologies). […] The transfected cells were incubated overnight with test compounds prior to cell lysis. Measurement of luciferase and P-galactosidase activity were performed using respectively the luciferase assay system (Promega) and Galacto-light plus (Tropix) according to the manufacturers' protocols and measured on the Victor 1420 multilabel counter, Wallac. Detection of β-galactosidase activity was used as a control for transfection efficiency.

cRel + ER beta = assay: Transrepression of c-Rel induced reporters, U-2 OS co-transfected with ERβ
Method: as §1, §2, §3

ERα and c-Rel = assay: NF-κB-responsive reporters in COS cells transfected with ERα and c-Rel; details: COS cells (B), ERα + cRel transfected
Source text: This example describes an assay, based on the E-selectin or VCAM promoter in combination with ERα in the T24/ECV cell line. Note that for the ER/NF-κB transrepression assay the ECV304 cell line was used, which was believed to be the only endothelial cell line available that was suitable for producing stable ERα expressing clones. At a later stage ATCC reported that the ECV304 cells were no endothelial cells but, instead, were T24 bladder carcinoma cells. In order to enhance the cytokine induction and amount of repression by estrogens, multiple copies of NF-κB responsive regions of the E-Selectin and VCAM promoters were used to construct new reporters named ELAM1a, ELAM2, ELAM-HMG, VCAM1-2, VCAM2, and VCAM3 (for reporter details see appendix 1).
ECV304-ERα cells stably express ERα and endogenous c-Rel, whereas COS cells were transiently transfected with ERα, and, where indicated, c-Rel. Both cell types were co-transfected with the indicated E-selectin (ELAM) or VCAM promoter derived reporters.
Human osteosarcoma U-2 OS (HTB-96), monkey kidney COS-1 (CRL-1650) and human ECV304 (CRL-1998) cells have been obtained from ATCC (American Type Culture collection). ECV304 cells were sold by ATCC as human endothelial cells, however at a later stage ATCC informed us that this cell line was in fact the human bladder epithelial carcinoma cell line T24. Therefore, these cells are called T24/ECV in this report. ECV304/T24(-ERα), U-2 OS and COS-7 cells were grown in a 1:1 mixture of phenol red free Dulbecco's modified medium (DMEM) and Ham's F12 medium (=M505), supplemented with 10% fetal calf serum (FCS). Experiments were performed in M505+10% FCTS (fetal calf serum treated with dextran-coated charcoal to deplete serum from steroid activity).
The six NF-κB responsive reporters pHGL3-ELAM 1a, pHGL3-ELAM 2, pHGL3-ELAM HMG, pHGL3-VCAM 1-2, pHGL3-VCAM 2 and pHGL3-VCAM 3 (plasmid nr. 1921-1926 respectively) were constructed by ligating annealed primers in the Kpn I and Sac I sites of pHGL3-TATA. The primers were based on the NF-κB-RE sequences in the ELAM and the VCAM promoter (see Appendix 1). Several copies of the NF-κB-RE's were cloned in order the gain a higher absolute luciferase signal. The ELAM HMG construct contains a double repeat, while the other constructs contain three NF-κB -RE's. For primer and reporter sequences, see appendix 1.
as §3, with “Wallac.” for “Wallac. Detection of β-galactosidase activity was used as a control for transfection efficiency.”

## C[C@]12CC[C@@H]3c4ccc(O)cc4CC[C@H]3[C@@H]1CC[C@@H]2O [Org E2, 17β-estradiol]
cRel + ER alpha
  luciferase activity, 3*NFkB-reporter: 5140
  luciferase activity, ELAM+ reporter: 3256
  luciferase activity, ELAM− reporter: 569
  luciferase activity, ICAM reporter: 3514
  luciferase activity, VCAM reporter: 259
cRel + ER beta
  luciferase activity, ELAM+ reporter: 3708
  luciferase activity, ELAM− reporter: 1495
  luciferase activity, ICAM reporter: 1611
  luciferase activity, VCAM reporter: 882
ERα and c-Rel
  luciferase activity, ELAM1a reporter: 7390 cps
  luciferase activity, ELAM2 reporter: 6223 cps
  luciferase activity, ELAM-HMG reporter: 61571 cps
  luciferase activity, ELAM− reporter: 90035 cps
  luciferase activity, VCAM1-2 reporter: 9107 cps
  luciferase activity, VCAM2 reporter: 4783 cps
  luciferase activity, VCAM3 reporter: 10781 cps
  luciferase activity, VCAM reporter: 51283 cps
